Measurements published in patent US20080255031A1, “METHOD FOR ENHANCING INSULIN SECRETION” (priority 2007, published 2008).
Converted amounts (≈) assume the structure as drawn. Where two headings read alike, the source gives them in different places.

What was measured:
[1] = system: rat isolated pancreatic islets; experiment: Glucose stimulated insulin secretion (GSIS) in rat isolated pancreatic islets; assay type: cell-based
Description: Rat islets were isolated from male Sprague-Dawley (SD) rats (8-12 weeks old, n=6) as described by Yang Z. et al. […] Insulin secretion assay was performed essentially as previously described by Liu D. et al. Steroids 2006, 71, 691-699. […] Insulin secreted in experimental samples was measured by a RIA kit (Mercodia, N.C.). All insulin secretion data in the present study were normalized to insulin secretion per islet. There was a biphasic response for insulin secretion to ranolazine.

[2] = Solubility in aqueous solutions by pH (Table 1); assay type: physicochemical
IKs [3] = details: Zygmunt et al. (2002); read-out: IC50 value (current not named); cited from earlier work
[4] = patients; U.S. Patent Publication No. 2004/0063717; cited from earlier work
CYP2D6 [5] = biological target: T1, CYP2D6 (Homo sapiens, UniProt P10635); experiment: biochemical
T1 sequence (P10635 whole entry): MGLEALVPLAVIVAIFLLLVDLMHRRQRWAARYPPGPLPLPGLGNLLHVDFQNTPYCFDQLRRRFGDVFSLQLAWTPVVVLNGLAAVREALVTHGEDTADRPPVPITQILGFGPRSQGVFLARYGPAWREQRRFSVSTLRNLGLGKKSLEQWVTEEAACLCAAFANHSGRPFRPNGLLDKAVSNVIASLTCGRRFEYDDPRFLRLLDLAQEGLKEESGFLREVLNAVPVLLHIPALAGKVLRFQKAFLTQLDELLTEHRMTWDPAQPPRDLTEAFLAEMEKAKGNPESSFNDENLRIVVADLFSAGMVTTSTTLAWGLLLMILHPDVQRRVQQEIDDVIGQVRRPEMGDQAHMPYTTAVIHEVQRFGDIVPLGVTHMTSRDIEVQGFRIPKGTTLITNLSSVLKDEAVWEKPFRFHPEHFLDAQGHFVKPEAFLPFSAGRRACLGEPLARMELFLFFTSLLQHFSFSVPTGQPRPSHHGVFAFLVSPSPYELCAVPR
Description: The substrate, buffer and enzyme were pre-warmed at 37° C. The pre-warmed NADPH regenerating system and were then added and the samples gently mixed and incubated for 30 minutes. The effect of ranolazine on the CYP2D6 marker reactions to form 1-hydroxy-bufurolol, and dextrophan was monitored by tandem mass spectrometric assays. A known CYP2D6 inhibitor, quinidine, was included as a positive control. The negative control samples consisted of all components except ranolazine or known inhibitors. Incubations were carried out in duplicate.

CYP2D6 [6] = biological target: T1, CYP2D6; experiment: Inhibitory effects on CYP2D6 in extensive metabolizers of dextromethorphan; assay type: in vivo; set-up: evaluated in extensive metabolizers of dextromethorphan; from tissue; host or cells: in vivo, subjects who are extensive metabolizers
IKr [7] = biological target: T2, IKr (Canis lupus familiaris, UniProt Q9TSZ3); set-up: Whole cell currents were recorded from isolated canine left ventricular midmyocrdial cells; endogenous in cells; host or cells: isolated canine left ventricular midmyocardial cells; details: Zygmunt et al. (2002); cited from earlier work
T2 sequence (Q9TSZ3 1-1158): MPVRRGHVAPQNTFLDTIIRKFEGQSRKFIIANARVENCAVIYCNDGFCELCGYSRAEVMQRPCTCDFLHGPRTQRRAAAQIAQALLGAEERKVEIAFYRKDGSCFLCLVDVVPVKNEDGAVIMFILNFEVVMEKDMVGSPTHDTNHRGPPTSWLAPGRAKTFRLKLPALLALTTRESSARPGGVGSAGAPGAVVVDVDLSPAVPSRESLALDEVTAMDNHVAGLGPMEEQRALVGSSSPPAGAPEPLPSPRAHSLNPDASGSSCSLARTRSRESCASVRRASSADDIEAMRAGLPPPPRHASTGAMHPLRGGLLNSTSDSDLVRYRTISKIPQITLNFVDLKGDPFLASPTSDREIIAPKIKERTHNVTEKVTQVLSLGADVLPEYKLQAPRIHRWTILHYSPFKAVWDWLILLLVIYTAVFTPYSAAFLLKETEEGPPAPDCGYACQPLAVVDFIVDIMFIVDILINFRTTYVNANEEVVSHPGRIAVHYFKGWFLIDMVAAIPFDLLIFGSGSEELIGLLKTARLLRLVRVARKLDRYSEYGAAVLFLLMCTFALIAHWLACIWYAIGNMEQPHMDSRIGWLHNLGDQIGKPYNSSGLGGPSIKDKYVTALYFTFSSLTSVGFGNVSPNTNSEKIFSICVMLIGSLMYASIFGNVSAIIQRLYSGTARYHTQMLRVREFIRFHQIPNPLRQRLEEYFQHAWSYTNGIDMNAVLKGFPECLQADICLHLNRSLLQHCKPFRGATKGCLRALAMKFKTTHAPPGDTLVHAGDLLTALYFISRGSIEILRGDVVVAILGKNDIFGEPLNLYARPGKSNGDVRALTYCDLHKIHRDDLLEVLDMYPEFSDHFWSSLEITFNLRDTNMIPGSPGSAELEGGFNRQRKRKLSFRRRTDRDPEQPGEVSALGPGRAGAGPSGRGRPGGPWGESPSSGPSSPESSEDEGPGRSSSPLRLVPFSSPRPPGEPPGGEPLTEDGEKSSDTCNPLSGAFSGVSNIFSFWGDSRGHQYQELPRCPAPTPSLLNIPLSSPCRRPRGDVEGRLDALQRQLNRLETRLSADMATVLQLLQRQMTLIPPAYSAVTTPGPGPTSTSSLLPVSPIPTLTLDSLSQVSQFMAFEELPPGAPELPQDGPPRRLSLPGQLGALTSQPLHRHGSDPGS

[8] = system: human isolated pancreatic islets; experiment: GSIS in human isolated pancreatic islets; assay type: cell-based; details: one donor, 30 min incubation (Example 4, FIG. 4)
Description: Rat islets were isolated from male Sprague-Dawley (SD) rats (8-12 weeks old, n=6) as described by Yang Z. et al. […] Insulin secretion assay was performed essentially as previously described by Liu D. et al. Steroids 2006, 71, 691-699. […] Insulin secreted in experimental samples was measured by a RIA kit (Mercodia, N.C.). […] The procedure used for the human islets was the same as the procedure used in Example 1 above, except that the incubation period was 30 minutes, instead of the 60 minutes used in Example 1.

IKr [9] = biological target: T2, IKr; experiment: cell-based
Description: (§1) Whole cell currents were recorded from isolated canine left ventricular midmyocrdial cells at 37° C. IKr and IKs were recorded during standard pulse protocols. Action potentials recorded at basic cycle lengths (BCL) of 300 and 2000 ms were used as command waveforms during voltage claim to measure late INa. Enantiomeric effects were determined at concentrations of 3, 10, and 30 μM.
(§2) Late INa was evaluated at two voltages during the plateau and final repolarization of an action potential voltage claims.

IKs [10] = experiment: Whole cell IKs in isolated canine left ventricular midmyocardial cells; assay type: cell-based; details: 30 μM
Description: as §1, §2

CYP2D6 [11] = biological target: T1, CYP2D6; experiment: biochemical; remark: listed apart in the source
Description: The incubation mixture contained potassium phosphate, pH 7.2 (final concentration=100 mM), magnesium chloride (5 mM), NADPH (1 mM), CYP2D6-specific marker substrate (bufuralol, 25 μM), (R) or (S)-ranolazine (10, 25, 100, 250, 1000 μM), or known CYP2D6 inhibitor (quinidine, 5 μM), and human liver microsomal (HLM) proteins. All reagents except NADPH were combined and preincubated at 37° C. for 2-3 min. Reactions were initiated by addition of NADPH and incubated 20 minutes. The CYP2D6 marker reaction, bufuralol 1-hydroxylation, was monitored. A known CYP2D6 inhibitor, quinidine, was included as a positive control. The negative control samples consisted of all components but not ranolazine. Incubations were run in triplicate for each condition except for positive controls, which were carried out in duplicate.

COc1ccccc1OCC(O)CN1CCN(CC(=O)Nc2c(C)cccc2C)CC1 (racemic) [ranolazine, (±)-N-(2,6-dimethylphenyl)-4-[2-hydroxy-3-(2-methoxyphenoxy)propyl]-1-piperazine-acetamide]
increase of insulin secretion (GSIS) ([1]; 1 nM to 1 μM, concentration-dependent, 20 mM glucose, 60 min): 2-5 fold
effect on GSIS ([1]; 10 μM, compared with 20 mM glucose alone): no significant effect on GSIS
USP Solubility Class ([2]; Solution pH 4.81): Freely Soluble
USP Solubility Class ([2]; Solution pH 4.89): Soluble
USP Solubility Class ([2]; Solution pH 4.90): Soluble
USP Solubility Class ([2]; Solution pH 5.04): Soluble
USP Solubility Class ([2]; Solution pH 5.35): Sparingly Soluble
USP Solubility Class ([2]; Solution pH 5.82): Slightly soluble
USP Solubility Class ([2]; Solution pH 6.46): Slightly soluble
USP Solubility Class ([2]; Solution pH 6.73): Very slightly soluble
USP Solubility Class ([2]; Solution pH 7.08): Very slightly soluble
USP Solubility Class ([2]; Solution pH 7.59 (unbuffered water)): Very slightly soluble
Solubility ([2]; Solution pH 7.79): 170 µg/mL (≈ 398 µM)
USP Solubility Class ([2]; Solution pH 7.79): Very slightly soluble
USP Solubility Class ([2]; Solution pH 12.66): Very slightly soluble
IC50 (IKs [3]): > 100 µM
HbA1c levels [4]: reduced HbA1c levels
IC50 (CYP2D6 [5]): 324 µM
inhibition of CYP2D6 by ranolazine and/or metabolites (CYP2D6 [6]): partially inhibit CYP2D6
IC50 (IKr [7]): 11 µM

COc1ccccc1OC[C@H](O)CN1CCN(CC(=O)Nc2c(C)cccc2C)CC1 [R-ranolazine, (R)-(+)-N-(2,6-dimethylphenyl)-4-[2-hydroxy-3-(2-methoxyphenoxy)-propyl]-1-piperazineacetamide]
increasing the secretion of insulin in response to glucose [8]: significantly more effective
IC50 (IKr [9]): 28 ± 4 µM
IKs reduced (IKs [10]): 5%
IC50 (CYP2D6 [11]): 430 µM

COc1ccccc1OC[C@@H](O)CN1CCN(CC(=O)Nc2c(C)cccc2C)CC1 [S-ranolazine, (S)-(−)-N-(2,6-dimethylphenyl)-4-[2-hydroxy-3-(2-methoxyphenoxy)-propyl]-1-piperazineacetamide]
IC50 (IKr [9]): 10 ± 2 µM
IKs reduced (IKs [10]): 27%
IC50 (CYP2D6 [11]): 130 µM
